The CheMixHub ionic liquid set

Test: xn = mol fraction of the nth substance listed
Conditions: for electrical conductivity: 101 kPa; for viscosity: 100 kPa

CCCC[n+]1ccn(C)c1.N[C@@H](CC(=O)O)C(=O)[O-] + CO
Conditions	electrical conductivity [S/m]
298.15 K, x2 = 0.2999	0.101
298.15 K, x2 = 0.5015	0.161
298.15 K, x2 = 0.7957	0.64
298.15 K, x2 = 0.8988	1.13
303.15 K, x2 = 0.1999	0.108
303.15 K, x2 = 0.5949	0.241
303.15 K, x2 = 0.6969	0.377
308.15 K, x2 = 0.398	0.218
308.15 K, x2 = 0.6969	0.496
308.15 K, x2 = 0.9214	1.39
308.15 K, x2 = 0.975	1.36
318.15 K, x2 = 0.1999	0.212
318.15 K, x2 = 0.5015	0.378
318.15 K, x2 = 0.7957	0.98
318.15 K, x2 = 0.8988	1.42

CCc1n(S(=O)(=O)O)cc[n+]1S(=O)(=O)O.O=C([O-])C(F)(F)F + CO
electrical conductivity [S/m]
Conditions	283.15 K	293.15 K	298.15 K	313.15 K
x1 = 0.0052	–	–	1.51	–
x1 = 0.0255	–	–	3.08	–
x1 = 0.02551	3.57	3.28	3.08	2.7

Cc1n(S(=O)(=O)O)cc[n+]1S(=O)(=O)O.O=C([O-])C(F)(F)F + CO
Conditions	electrical conductivity [S/m]
298.15 K, x1 = 0.0104	1.52

O=C([O-])C(F)(F)F.O=S(=O)(O)n1cc[n+](S(=O)(=O)O)c1 + CO
electrical conductivity [S/m]
Conditions	288.15 K	298.15 K	308.15 K	313.15 K	333.15 K
x1 = 0.0052	–	1.85	–	–	–
x1 = 0.02551	4.64	–	3.89	3.76	3.25

CCCCCCCCCCCCCC[P+](CCCCCC)(CCCCCC)CCCCCC.Cc1ncc([N+](=O)[O-])[n-]1 + COCCOCCOCCOCCOC
viscosity [mPa·s]
Conditions	278.15 K	283.15 K	288.15 K	293.15 K	298.15 K	303.15 K	308.15 K	313.15 K	318.15 K	323.15 K
x2 = 0.151	2535	1685	1140	791	563	411	306	232	179	141
x2 = 0.399	595	425	308	228	173	134	106	85	69	57

CCCCCCCCCCCCCC[P+](CCCCCC)(CCCCCC)CCCCCC.N#C[N-]C#N + COCCOCCOCCOCCOC
viscosity [mPa·s]
Conditions	278.15 K	283.15 K	288.15 K	293.15 K	298.15 K	303.15 K	308.15 K	313.15 K	318.15 K	323.15 K
x2 = 0	1750	1210	842	603	442	331	253	196	155	124
x2 = 0.099	1130	794	566	413	308	234	182	143	115	93
x2 = 0.203	708	508	370	275	209	162	128	103	83	69
x2 = 0.299	479	348	258	195	151	119	96	78	64	54
x2 = 0.501	160	122	95	75	61	–	–	–	–	–
x2 = 0.652	73	57	–	–	–	–	–	–	–	–

CCCCCCCCCCCCCC[P+](CCCCCC)(CCCCCC)CCCCCC.N#Cc1nc[n-]c1C#N + COCCOCCOCCOCCOC
viscosity [mPa·s]
Conditions	278.15 K	283.15 K	288.15 K	293.15 K	298.15 K	303.15 K	308.15 K	313.15 K	318.15 K	323.15 K
x2 = 0.201	1051	723	507	365	269	203	156	123	98	79
x2 = 0.401	389	283	209	158	122	97	77	63	–	–
